Laboratory results reported in patent publication US9765056B2, “Indole and pyrrole compounds, a process for their preparation and pharmaceutical compositions containing them” (LES LABORATOIRES SERVIER, priority 2013, dated 2017).
Counter-ions that a name gives are not always drawn.

Key:
[1] = test system: RS4;11 leukaemia tumour line; assay: In vitro cytotoxicity, Microculture Tetrazolium Assay (MTT); assay type: cell-based; settings: Homo sapiens; RS4;11 cells, 48 hours exposure
Description: The cytotoxicity studies were carried out on the RS4;11 leukaemia tumour line.
The cells are distributed onto microplates and exposed to the test compounds for 48 hours. The cell viability is then quantified by a colorimetric assay, the Microculture Tetrazolium Assay (Cancer Res., 1987, 47, 939-942).

[2] = target: Bcl-2 protein (histag-Bcl-2, UniProtKB P10415) (Homo sapiens (Human), UniProt P10415); assay: Inhibition of Bcl-2 by the fluorescence polarisation technique; assay type: binding; settings: fluorescence polarisation test; method A, or method B where underlined (underlining not visible); read-out: IC50 (nM) Bcl-2 FP
Description: Inhibition of Bcl-2 by the fluorescence polarisation technique

Bcl-2 protein, sequence (P10415 whole entry): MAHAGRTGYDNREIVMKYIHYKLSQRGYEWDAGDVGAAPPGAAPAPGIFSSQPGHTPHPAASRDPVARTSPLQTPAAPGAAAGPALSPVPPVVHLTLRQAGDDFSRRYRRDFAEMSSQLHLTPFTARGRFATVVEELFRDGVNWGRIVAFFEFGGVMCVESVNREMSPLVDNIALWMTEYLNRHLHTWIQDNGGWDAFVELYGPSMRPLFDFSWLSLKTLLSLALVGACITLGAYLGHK

Structure (SMILES) | IC50 [2] [nM] | IC50 [1] [nM]
Cc1cc(C(=O)N(c2ccccc2)c2ccc(O)cc2)cn1-c1cc(Cl)ccc1C(=O)N1Cc2ccccc2C[C@H]1CN1CCN(C)CC1 [Example 26, 1-(5-Chloro-2-{[(3S)-3-[(4-methylpiperazin-1-yl)methyl]-3,4-dihydroisoquinolin-2(1H)-yl]carbonyl}phenyl)-N-(4-hydroxyphenyl)-5-methyl-N-phenyl-1H-pyrrole-3-carboxamide] | 7.5 | 171
Cc1cc(C(=O)N(c2ccccc2)c2ccc(O)cc2)cn1-c1cc(F)ccc1C(=O)N1Cc2ccccc2C[C@H]1CN(C)C [Example 14, 1-(2-{[(3S)-3-[(Dimethylamino)methyl]-3,4-dihydroisoquinolin-2(1H)-yl]carbonyl}-5-fluorophenyl)-N-(4-hydroxyphenyl)-5-methyl-N-phenyl-1H-pyrrole-3-carboxamide] | 24.8 | 1270
CCCCN(C(=O)c1cn(-c2cc3c(cc2C(=O)N2Cc4ccccc4C[C@H]2CN2CCN(C)CC2)OCO3)c2ccccc12)c1ccc(O)cc1 [Example 33, N-Butyl-N-(4-hydroxyphenyl)-1-(6-{[(3S)-3-[(4-methylpiperazin-1-yl)methyl]-3,4-dihydroisoquinolin-2(1H)-yl]carbonyl}-1,3-benzodioxol-5-yl)-1H-indole-3-carboxamide] | 4.4 | 199
CN1CCN(C[C@@H]2Cc3ccccc3CN2C(=O)c2cc3c(cc2-n2cc(C(=O)N(c4ccc(O)cc4)c4ccc5sccc5c4)c4ccccc42)OCO3)CC1 [Example 43, N-(1-Benzothiophen-5-yl)-N-(4-hydroxyphenyl)-1-(6-{[(3S)-3-[(4-methylpiperazin-1-yl)methyl]-3,4-dihydroisoquinolin-2(1H)-yl]carbonyl}-1,3-benzodioxol-5-yl)-1H-indole-3-carboxamide] | 7.2 | 101
Cc1cc(C(=O)N(c2ccccc2)c2ccc(O)cc2)cn1-c1cc2c(cc1C(=O)N1Cc3ccccc3C[C@H]1CN1CCN(C)CC1)OCO2 [Example 24, N-(4-Hydroxyphenyl)-5-methyl-1-(6-{[(3S)-3-[(4-methylpiperazin-1-yl)methyl]-3,4-dihydroisoquinolin-2(1H)-yl]carbonyl}-1,3-benzodioxol-5-yl)-N-phenyl-1H-pyrrole-3-carboxamide] | 15.6 | 140
Cc1ccc(N(C(=O)c2cn(-c3cc4c(cc3C(=O)N3Cc5ccccc5C[C@H]3CN3CCN(C)CC3)OCO4)c3ccccc23)c2ccc(O)cc2)cc1F [Example 52, N-(3-Fluoro-4-methylphenyl)-N-(4-hydroxyphenyl)-1-(6-{[(3S)-3-[(4-methylpiperazin-1-yl)methyl]-3,4-dihydroisoquinolin-2(1H)-yl]carbonyl}-1,3-benzodioxol-5-yl)-1H-indole-3-carboxamide] | 5.4 | 77.3
CN1CCN(C[C@@H]2Cc3ccccc3CN2C(=O)c2ccc(Br)cc2-n2cc(C(=O)N(c3ccc(O)cc3)c3ccc(F)cc3)c3ccccc32)CC1 [Example 71, 1-(5-Bromo-2-{[(3S)-3-[(4-methylpiperazin-1-yl)methyl]-3,4-dihydroisoquinolin-2(1H)-yl]carbonyl}phenyl)-N-(4-fluorophenyl)-N-(4-hydroxyphenyl)-1H-indole-3-carboxamide] | 8.3 | 196
CN1CCN(C[C@@H]2Cc3ccccc3CN2C(=O)c2cc3c(cc2-n2cc(C(=O)N(c4ccc(O)cc4)c4ccc(F)cc4)c4ccccc42)OCO3)CC1 [Example 35, N-(4-Fluorophenyl)-N-(4-hydroxyphenyl)-1-(6-{[(3S)-3-[(4-methylpiperazin-1-yl)methyl]-3,4-dihydroisoquinolin-2(1H)-yl]carbonyl}-1,3-benzodioxol-5-yl)-1H-indole-3-carboxamide] | 3.5 | 68.9
CN1CCN(C[C@@H]2Cc3ccccc3CN2C(=O)c2cc3c(cc2-n2cc(C(=O)N(c4ccc(O)cc4)c4ccc5occc5c4)c4ccccc42)OCO3)CC1 [Example 44, N-(1-Benzofuran-5-yl)-N-(4-hydroxyphenyl)-1-(6-{[(3S)-3-[(4-methylpiperazin-1-yl)methyl]-3,4-dihydroisoquinolin-2(1H)-yl]carbonyl}-1,3-benzodioxol-5-yl)-1H-indole-3-carboxamide] | 6.8 | 164

Further lines, with some results ahead:

IC50 [2] [nM] | Structure (SMILES) | IC50 [1] [nM]
17.5 | CN1CCN(C[C@@H]2Cc3ccccc3CN2C(=O)c2ccc(Cl)cc2-n2cc(C(=O)N(c3ccccc3)c3ccccc3)c3ccccc32)CC1 [Example 178, 1-{5-Chloro-2-[(3S)-3-[(4-methylpiperazin-1-yl)methyl]-1,2,3,4-tetrahydroisoquinoline-2-carbonyl]phenyl}-N,N-diphenyl-1H-indole-3-carboxamide dihydrochloride] | 812
10 | CCCCN(C(=O)c1cn(-c2cc(OC)c(O)cc2C(=O)N2Cc3ccccc3C[C@H]2CN2CCN(C)CC2)c2ccccc12)c1ccc(O)cc1 [Example 203, N-Butyl-1-{4-hydroxy-5-methoxy-2-[(3S)-3-[(4-methylpiperazin-1-yl)methyl]-1,2,3,4-tetrahydroisoquinoline-2-carbonyl]phenyl}-N-(4-hydroxyphenyl)-1H-indole-3-carboxamide dihydrochloride] | 454
31.7 | NC[C@@H]1Cc2ccccc2CN1C(=O)c1cc2c(cc1-n1nc(C(=O)N(c3ccccc3)c3ccccc3)c3ccccc31)OCO2 [Example 132, 1-{6-[(3S)-3-(Aminomethyl)-1,2,3,4-tetrahydroisoquinoline-2-carbonyl]-2H-1,3-benzodioxol-5-yl}-N,N-diphenyl-1H-indazole-3-carboxamide] | 1860
4.2 | O=C(c1cn(-c2ccccc2C(=O)N2Cc3ccccc3C[C@H]2CO)c2ccccc12)N(c1ccccc1)c1ccc(O)cc1 [Example 172, 1-{2-[(3S)-3-(Hydroxymethyl)-1,2,3,4-tetrahydroisoquinoline-2-carbonyl]phenyl}-N-(4-hydroxyphenyl)-N-phenyl-1H-indole-3-carboxamide] | 1200
7.9 | Cc1cc(C(=O)N(c2ccc(O)cc2)c2ccc3c(ccn3C)c2)cn1-c1cc2c(cc1C(=O)N1Cc3ccccc3C[C@H]1CN(C)C)OCO2 [Example 94, 1-(6-{[(3S)-3-[(Dimethylamino)methyl]-3,4-dihydroisoquinolin-2(1H)-yl]carbonyl}-1,3-benzodioxol-5-yl)-N-(4-hydroxyphenyl)-5-methyl-N-(1-methyl-1H-indol-5-yl)-1H-pyrrole-3-carboxamide hydrochloride] | 118
51 | COc1ccc(C(=O)N2Cc3ccccc3C[C@H]2CN)c(-n2nc(C(=O)N(c3ccccc3)c3ccccc3)c3ccccc32)c1 [Example 150, 1-{2-[(3S)-3-(Aminomethyl)-1,2,3,4-tetrahydroisoquinoline-2-carbonyl]-5-methoxyphenyl}-N,N-diphenyl-1H-indazole-3-carboxamide] | 1320
13.6 | Cc1cc(C(=O)N(c2ccc(O)cc2)c2ccc3c(ccn3C)c2)cn1-c1cc2c(cc1C(=O)N1Cc3ccccc3C[C@H]1CN1CCCC1)OCO2 [Example 105, N-(4-Hydroxyphenyl)-5-methyl-N-(1-methyl-1H-indol-5-yl)-1-(6-{[(3S)-3-(pyrrolidin-1-ylmethyl)-3,4-dihydroisoquinolin-2(1H)-yl]carbonyl}-1,3-benzodioxol-5-yl)-1H-pyrrole-3-carboxamide hydrochloride] | 202
99.1 | Cc1cc(C(=O)N(c2ccc(O)cc2)c2ccc3[nH]ccc3c2)cn1-c1cc(Br)ccc1C(=O)N1Cc2ccccc2C[C@H]1C(=O)N1CCN(C)CC1 [Example 101, 1-(5-Bromo-2-{[(3S)-3-[(4-methylpiperazin-1-yl)carbonyl]-3,4-dihydroisoquinolin-2(1H)-yl]carbonyl}phenyl)-N-(4-hydroxyphenyl)-N-(1H-indol-5-yl)-5-methyl-1H-pyrrole-3-carboxamide] | 1880
4.7 | COc1cc(-n2cc(C(=O)N(c3ccc(O)cc3)C3CCCCC3)c3ccccc32)c(C(=O)N2Cc3ccccc3C[C@H]2CN2CCN(C)CC2)cc1O [Example 204, N-Cyclohexyl-1-{4-hydroxy-5-methoxy-2-[(3S)-3-[(4-methylpiperazin-1-yl)methyl]-1,2,3,4-tetrahydroisoquinoline-2-carbonyl]phenyl}-N-(4-hydroxyphenyl)-1H-indole-3-carboxamide dihydrochloride] | 780
57.7 | CCCCN(CCCC)C(=O)c1cn(-c2ccc(NC(=O)CSc3ccccc3)cc2C(=O)N2Cc3ccccc3C[C@H]2CN2CCN(C)CC2)c2ccccc12 [Example 199, N,N-Dibutyl-1-{2-[(3S)-3-[(4-methylpiperazin-1-yl)methyl]-1,2,3,4-tetrahydroisoquinoline-2-carbonyl]-4-[2-(phenylsulphanyl)acetamido]phenyl}-1H-indole-3-carboxamide] | 2360
3.2 | COc1cc(-n2cc(C(=O)N(c3ccccc3)c3ccc(O)cc3)c3ccccc32)c(C(=O)N2Cc3ccccc3C[C@H]2CN2CCN(C)CC2)cc1O [Example 165, 1-{4-Hydroxy-5-methoxy-2-[(3S)-3-[(4-methylpiperazin-1-yl)methyl]-1,2,3,4-tetrahydroisoquinoline-2-carbonyl}phenyl]-N-(4-hydroxyphenyl)-N-phenyl-1H-indole-3-carboxamide dihydrochloride] | 179
3.6 | Cc1cc(C(=O)N(c2ccc(O)cc2)c2ccc3c(ccn3C)c2)cn1-c1cc2c(cc1C(=O)N1Cc3ccccc3C[C@H]1CN1CCN(C)CC1)OCO2 [Example 90, N-(4-Hydroxyphenyl)-5-methyl-N-(1-methyl-1H-indol-5-yl)-1-(6-{[(3S)-3-[(4-methylpiperazin-1-yl)methyl]-3,4-dihydroisoquinolin-2(1H)-yl]carbonyl}-1,3-benzodioxol-5-yl)-1H-pyrrole-3-carboxamide] | 76.6
